Source: patent publication US20180168161A1, “MICROPROPAGATION OF BLACK COHOSH” (North Carolina Agricultural and Technical State University, priority 2016, published 2018)

Test system: black cohosh plantlets
Assay: Rooting of black cohosh cultures and growth of the micropropagated plantlets in soil
Assay type: in vivo, Cimicifuga racemosa/Actaea racemose L.
Conditions: rooting 4 weeks, 60% shade
Description: All cultures described herein were transferred onto fresh media every 4 weeks. When indicated as such, the cultures were maintained in a plant tissue culture grade growth chamber under a 16-hour photoperiod (e.g. 16 hours of light per a 24 hour period) with a photo flux density of 37.6±4.8 μmol s^−1m^−2 light per day provided by cool white fluorescent tubes at 23±0.1° C., unless otherwise noted. As employed herein, MS supplemented base medium is at a pH of between about 5.4 and 5.8, supplemented with about 0.7% agar and about 3% sucrose, optionally with one or more plant growth regulators as disclosed herein. The pH of the medium is adjusted with a base, such as 1N KOH, and/or an acid, such as 1N HCl, before the agar is added. The supplemented medium is sterilized by autoclaving at about 120° C. and about 106 kPa for about 20 minutes. A first half of the cultures from Example 1B were moved to fresh MS supplemented base medium containing IBA (1.0 mg/1) and kept in a growth chamber under 16 hours light conditions per day for 4 weeks for rooting of the plantlets. See also the bottom row of FIG. 1, which refers to rooting for 4 weeks. […] A second half of the cultures from Example 1B were moved to fresh MS supplemented base medium containing NAA (0.1 mg/1) and kept in a growth chamber under 16 hours light conditions per day for 4 weeks for rooting of the plantlets. […]

O=C(O)CCCc1c[nH]c2ccccc12 [IBA, indole-3-butyric acid]
plantlet growth in soil after rooting (shoots proliferated in BA+NAA (Example 1B)): grew vigorously with normal morphology | plantlet growth in soil after rooting (shoots proliferated in kinetin+NAA (Example 1C)): grew vigorously
